Consider ten molecules from patent publication US7151105B2, “Inhibitors of Hepatitis C virus RNA-dependent RNA polymerase, and compositions and treatments using the same” (Agouron Pharmaceuticals, Inc., priority 2004, dated 2006).

In the assay the target is T1, Recombinant HCV polymerase (Hepatitis C virus genotype 1b, UniProt P26663).
T1 construct: Recombinant HCV polymerase was tested for its ability to perform primer/template-directed transcription
T1 sequence (P26663 2420-3010): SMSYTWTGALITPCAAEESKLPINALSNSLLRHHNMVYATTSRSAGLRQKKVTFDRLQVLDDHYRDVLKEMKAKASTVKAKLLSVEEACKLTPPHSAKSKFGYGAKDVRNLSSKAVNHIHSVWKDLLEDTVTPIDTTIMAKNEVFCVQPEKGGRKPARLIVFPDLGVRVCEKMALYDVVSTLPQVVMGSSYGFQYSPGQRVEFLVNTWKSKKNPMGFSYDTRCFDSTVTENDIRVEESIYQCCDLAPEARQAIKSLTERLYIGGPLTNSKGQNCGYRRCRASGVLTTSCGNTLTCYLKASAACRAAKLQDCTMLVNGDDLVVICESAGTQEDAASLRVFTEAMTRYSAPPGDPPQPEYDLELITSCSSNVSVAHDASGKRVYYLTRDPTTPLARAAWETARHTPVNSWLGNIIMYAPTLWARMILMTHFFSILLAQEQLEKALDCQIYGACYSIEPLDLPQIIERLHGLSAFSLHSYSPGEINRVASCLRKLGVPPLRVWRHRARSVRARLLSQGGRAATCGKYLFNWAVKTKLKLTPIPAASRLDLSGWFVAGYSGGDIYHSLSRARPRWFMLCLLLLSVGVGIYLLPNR
As to the kind of experiment: biochemical. As to conditions: inhibition of polymerase-directed transcription; 30 min at 30° C; 30 nM enzyme; cpm data in triplicate. The gist of the method:
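Primer/template-directed RNA synthesis by 2.5 pmol HCV polymerase on poly(rC)300/biotin-dG12 with 1 μM GTP plus α-32P-GTP, in pH 7.2 Tris buffer with 10 mM MgCl2, for 30 min at 30 °C. Products were filter-captured and counted, with 1% DMSO final. IC50 was fitted from triplicate cpm; percent inhibition was reported where IC50 was impractical.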
Consider `CCCOc1cc(O)c(CCC2(C3CCCC3)CC(O)=C(Cc3nc4ncc(C)cn4n3)C(=O)O2)cc1CC` (stereo not shown) [A(50), 6-Cyclopentyl-6-[2-(5-ethyl-2-hydroxy-4-propoxyphenyl)ethyl]-4-hydroxy-3-[(6-methyl[1,2,4]triazolo[1,5-a]pyrimidin-2-yl)methyl]-5,6-dihydro-2H-pyran-2-one], for which the IC50 was found to be 4 nM.

In the case of `COc1cc(OC)c(CCC2(C3CCCC3)CC(O)=C(Cc3nc(-c4ccccc4)nn3C)C(=O)O2)cc1Cl` (stereo not shown) [B(17), 6-[2-(5-Chloro-2,4-dimethoxyphenyl)ethyl]-6-cyclopentyl-4-hydroxy-3-[(1-methyl-3-phenyl-1H-1,2,4-triazol-5-yl)methyl]-5,6-dihydro-2H-pyran-2-one], the concentration for half-maximal inhibition (IC50) was 26 nM.

For `Cc1cc(C)n2nc(N(C)C3C(=O)CC(CCc4ccc(C(C)(C)C#N)c(Cl)c4)(C4CCCC4)OC3=O)nc2n1` (stereo not shown) [B(26), 2-[2-Chloro-4-(2-{2-cyclopentyl-5-[(5,7-dimethyl[1,2,4]triazolo[1,5-a]pyrimidin-2-yl)(methyl)amino]-4,6-dioxotetrahydro-2H-pyran-2-yl}ethyl)phenyl]-2-methylpropanenitrile], the IC50 was found to be 18000 nM.

In the case of `CCS(=O)(=O)N[C@H](C)c1ccc(CCC2(C3CCCC3)CC(O)=C(Cc3nc4nc(C)cc(C)n4n3)C(=O)O2)cc1` (stereo partly drawn) [A(81), N-{(1R)-1-[4-(2-{2-cyclopentyl-5-[(5,7-dimethyl[1,2,4]triazolo[1.5-a]pyrimidin-2-yl)methyl]-4-hydroxy-6-oxo-3,6-dihydro-2H-pyran-2-yl}ethyl)phenyl]ethyl}ethanesulfonamide], the concentration for half-maximal inhibition (IC50) was determined as 120 nM.

Turning to `CCc1cc(CCC2(C3CCCC3)CC(O)=C(Cc3nc4nc(C)cc(C)n4n3)C(=O)O2)ccc1-c1ncco1` (stereo not shown) [A(134), 6-cyclopentyl-3-[(5,7-dimethyl[1,2,4]triazolo[1,5-a]pyrimidin-2-yl)methyl]-6-{2-[3-ethyl-4-(1,3-oxazol-2-yl)phenyl]ethyl}-4-hydroxy-5,6-dihydro-2H-pyran-2-one], the IC50 was found to be 3 nM.

Turning to `CCc1cc(CCC2(C3CCCC3)CC(O)=C(Cc3nc4nc(C)cc(C)n4n3)C(=O)O2)ccn1` (single isomer, unassigned) [A(45), 6-Cyclopentyl-3-[(5,7-dimethyl[1,2,4]triazolo[1,5-a]pyrimidin-2-yl)methyl]-6-[2-(2-ethylpyridin-4-yl)ethyl]-4-hydroxy-5,6-dihydro-2H-pyran-2-one], the IC50 stood at 14 nM.

As for `COc1cc(OC)c(CCC2(C3CCCC3)CC(O)=C(Cc3nc(-c4cnccn4)nn3C)C(=O)O2)cc1Cl` (stereo not shown) [B(15), 6-[2-(5-Chloro-2,4-dimethoxyphenyl)ethyl]-6-cyclopentyl-4-hydroxy-3-[(1-methyl-3-pyrazin-2-yl-1H-1,2,4-triazol-5-yl)methyl]-5,6-dihydro-2H-pyran-2-one], the half-maximal inhibitory concentration (IC50) was found to be 19 nM.

As for `Cc1cnc2nc(CC3=C(O)CC(CCc4ccc(C(C)(C)O)c(Cl)c4)(C4CCCC4)OC3=O)nn2c1` (stereo not shown) [B(36), 6-{2-[3-Chloro-4-(1-hydroxy-1-methylethyl)phenyl]ethyl}-6-cyclopentyl-4-hydroxy-3-[(6-methyl[1,2,4]triazolo[1,5-a]pyrimidin-2-yl)methyl]-5,6-dihydro-2H-pyran-2-one], the IC50 came out at 19 nM.

Regarding `CCc1cc(CCC2(C3CCCC3)CC(O)=C(Cc3nc4nc(C)cc(C)n4n3)C(=O)O2)ccc1Oc1nccs1` (stereo not shown) [A(122), 6-Cyclopentyl-3-[(5,7-dimethyl[1,2,4]triazolo[1,5-a]pyrimidin-2-yl)methyl]-6-{2-[3ethyl-4-(1,3thiazol-2-yloxy)phenyl]ethyl}-4hydroxy-5,6dihydro-2H-pyran-2-one], the half-inhibitory concentration (IC50) stood at 4 nM.

Consider `Cc1cc(C)n2nc(CC3=C(O)CC(CCc4ccc([C@@H](C)N)cc4)(C4CCCC4)OC3=O)nc2n1` (stereo partly drawn) [A(92), 6-(2-{4-[(1R)-1-Aminoethyl]phenyl}ethyl)-6-cyclopentyl-3-[(5,7-dimethyl[1,2,4]triazolo[1,5-a]pyrimidin-2-yl)methyl]-hydroxy-5,6-dihydro-2H-pyran-2-one], for which the IC50 was found to be 300 nM.
